Legend:
fast spreading vitiligo = test: Clinical trial: arrest of disease activity with oral minipulse (OMP) of beta methasone with or without local active peptide; format: in vivo, human volunteers
From the text: (§1) That this happens was shown in a clinical trial on human volunteers. The above twin objectives were accomplished. Fig.2a describes two vitiligo patches at the start of treatment of oral steroids, while 2b describes the same patches at the end of 3 months of treatment with oral steroids while at the same time bFGF peptide(s) lotion was applied locally once a day on the lower vitiligo patch for the duration of intake of oral steroids. […] The arrest of the fast spread of the disease was accomplished to the same extent of 84% at the end of 6 months of treatment with oral steroids and the result was not altered by the local application of bFGF peptide(s) lotion (See table 3 for more details).

[1] = test system: vitiligo patches of volunteers; test: Clinical trial: repigmentation with oral minipulse of beta methasone with or without local active peptide; format: in vivo, human volunteers
From the text: as §1
At the end of 3 months of combinatorial treatment with steroids and local application of bFGF lotion more than 3 fold more patients got pigmented to a marked extent than with steroid alone (See Table 4 for more details). The percentage of volunteers who had moderate and marked rate of repigmentation with combinatorial therapy at the end of three months of treatment is twice than the steroid therapy alone.

## C[C@H]1C[C@H]2[C@@H]3CCC4=CC(=O)C=C[C@]4(C)[C@@]3(F)[C@@H](O)C[C@]2(C)[C@@]1(O)C(=O)CO [OMP Alone, beta methasone]
Fast spreading vitiligo; At 3 months
  No. of patients where the disease was arrested with time: 12
  Patients where the disease was arrested, percent: 75%
Fast spreading vitiligo; At 6 months
  No. of patients where the disease was arrested with time: 14
  Patients where the disease was arrested, percent: 87.5%
Fast spreading vitiligo; At 6 months, listed as oral steroids
  Patients where the disease was arrested, percent: 84%
[1]; At 3 months
  Repigmentation Marked, number of volunteers: 2
  Repigmentation Minimal, number of volunteers: 11
  Repigmentation Moderate, number of volunteers: 3
[1]; At 6 months
  Repigmentation Marked, number of volunteers: 4
  Repigmentation Minimal, number of volunteers: 8
  Repigmentation Moderate, number of volunteers: 4

From EP1754489A1, “A method of treating vitiligo using synergistic formation” (Ramaiah, Abburi, Prof., priority 2005, dated 2007)
